Data reported in patent US11980600B2, “Diagnostic assay and treatment for preeclampsia” (MIRZYME THERAPEUTICS LIMITED, priority 2015, dated 2024).

Columns and labels:
[1] = system: Ad-sFlt-1 injected Hmox1−/− mice; assay: Co-treatment rescue study of renal injury in non-pregnant Hmox1-/- mice injected with Ad-sFlt-1; type: in vivo; conditions: for proteinuria (24 h urinary albumin:creatinine ratio) / urinary KIM-1 levels: high sFlt-1; for renal glomerulosclerosis and mesangiolysis (glomerular histology): high sFlt-1, nor-NOHA daily i.p., L-arginine 25 g/L in drinking water
Method: Non-pregnant studies were carried out twelve-week-old Hmox1^−/− mice and Hmox1^+/+ mice. Animals were injected with 1×10^9 PFU of Ad-sFlt-1 or Ad-CMV (control) adenovirus by injection into the tail vein. Nine days after adenovirus administration, mice were individually placed in metabolic cages for 24 hours. Body weight, food and water intake, and urine volume were measured. Following urine measurements, blood sampling was undertaken on day 10, the animals were euthanized, and their kidneys and livers were collected for further analysis. Co-treatment rescue studies using arginase inhibitor and/or L-arginine supplementation were also undertaken in non-pregnant Hmox1^−/− mice and Hmox1^+/+ animals. Mice were injected intraperitoneally with nor-NOHA (Bachem, Bubendorf, Switzerland) daily. L-arginine (Sigma-Aldrich, St. Louis, MO) was given to the animals by supplementing the drinking water with 25 g/L one week before the Ad-sFlt-1 adenovirus injection and until the end of the study.
(§1) Urinary albumin was determined using Albuwell-M kits (Exocell Inc, Philadelphia, PA). Enzyme-linked immunosorbent assay kits for human and murine sFlt-1, KIM-1, and PIGF were obtained from R&D Systems and performed according to the manufacturer's specifications.
Human and murine placental tissues were prepared for immunohistochemistry as previously described. Immunohistochemistry was performed by using antibodies to Arginase-1, Ass1, Asl, and 3-nitrotyrosine. The following antibodies were used: (1) anti-arginase-1 antibody (1:50, Genetex); (2) anti-argininosuccinate synthase (1:100), Abcam); (3) anti-argininosuccinate lyase (1:100, Abcam) and (4) anti-3-Nitrotyrosine (1:100 dilution, Abcam). Sections from mouse kidneys or human placental biopsies were rehydrated, blocked with the use of normal serum, and incubated with primary antibody for 2 hours at room temperature. Visualization was performed by using a Vectastain ABC kit, with DAB. Slides were counterstained with hematoxylin. The staining was analysed by using a Nikon inverted microscope and Image Pro-Plus image analysis software.

[2] = system: Ad-sFlt-1 injected Hmox1+/− pregnant mice; assay: Rescue of preeclampsia phenotype in timed pregnant Hmox1+/- mice injected with Ad-sFlt-1; type: in vivo; conditions: for signs of preeclampsia overall: Ad-sFlt-1, agent given alone; for average fetal weight / fetal resorption rate / mean arterial blood pressure (MAP) / hypertension / proteinuria (24 h urinary albumin:creatinine ratio): Ad-sFlt-1, day 18 of gestation
Method: Pregnant mice studies were carried out ten to twelve-week-old Hmox1^+/− mice and Hmox1^+/+ mice or wild-type C57/B16 mice. The first day of pregnancy (E0.5) was defined by the presence of a vaginal plug the following morning. On E10.5 (second trimester) pregnant mice were injected with 1×10^9 PFU of Ad-sFlt-1 or Ad-CMV (control) adenovirus by injection into the tail vein. For RUPP study, on day 13 of gestation, time pregnant C57/Bl6 mice were anesthetized. An incision was made down the midline of the body and the abdominal aorta was isolated. The vessel was then restricted with 7.0 suture tied around a blunt needle (approximate diameter of 1 mm^2) placed on the aorta. The needle was then removed. Right ovarian artery was restricted with 7.0 suture. The incisions were closed and the mice were allowed to recover for five days. For the low-dose sFlt-1 experiment, 1×10^8 PFU of adenovirus expressing sFlt-1 was used. On E17.5 mice were individually placed in metabolic cages for 24 hours and arterial blood pressure was measured at E18.5 as described previously (Wang et al. 2013). In brief, mice were anesthetized by using a ketamine/xylazine cocktail, and the carotid artery was isolated and cannulated with a Millar 1-French Mikro-Tip pressure catheter connected to a pressure transducer (ADInstruments Ltd, Oxford, UK). After 30 minutes of blood pressure stabilization, arterial pressure was recorded and averaged over an additional 10-minute period. Following measurements, blood sampling was undertaken, the animals were euthanized, and their kidneys, livers, and placentas were collected. The live fetuses and placentas were counted and weighed. All experimentation was conducted in accordance with the United Kingdom Animals (Scientific Procedures) Act, 1986 with the use of procedures approved by the University Ethical Review Committee.
as §1

SMILES	proteinuria (24 h urinary albumin:creatinine ratio) [1]	urinary KIM-1 levels [1]	renal glomerulosclerosis and mesangiolysis (glomerular histology) [1]	signs of preeclampsia overall [2]	average fetal weight [2]	fetal resorption rate [2]	mean arterial blood pressure (MAP) / hypertension [2]	proteinuria (24 h urinary albumin:creatinine ratio) [2]
N=C(N)NCCC[C@H](N)C(=O)O [L-arginine]	improvements were absent	improvements were absent	improvements were absent	failed to abolish all signs of preeclampsia	no significant improvement	no significant improvement	significantly reduced	no significant improvements
N=C(NO)NCC[C@H](N)C(=O)O [nor-NOHA, N-w-hydroxy-L-nor-arginine]	improvements were absent	improvements were absent	improvements were absent	failed to abolish all signs of preeclampsia	no significant effect	reduced	no significant effect	no significant improvements
